Experimental data as given in US8008425B2, “Thiophene compound having sulfonyl group and process for producing the same” (Nissan Chemical Industries, Ltd., priority 2005, dated 2011).

Experiment: Solubility test
Assay type: physicochemical
Settings: 25° C., ultrasonic waves, 5 mg, solvent added 50 μL by 50 μL
Experimental: The solubility of each of the sulfonylthiophene compounds synthesized in Examples 21 and 22 was determined under ultrasonic waves at 25° C. by adding, to aliquots (5 mg) of the sulfonylthiophene compound, tetrahydrofuran (THF), toluene, N,N-dimethylformamide (DMF), chloroform, ethyl acetate and ethanol 50 μL by 50 μL, respectively, until they were dissolved. The level of solubility was ranked in accordance with the following standards. • ⊚: Dissolved with 50 μL (concentration: 10%) • ◯: Dissolved with 100 μL (concentration: 5%) • Δ: Dissolved with 200 μL (concentration: 2.5%) • X: Not dissolved even by the addition of 500 μL (concentration: 1% or lower)

Row | Structure (SMILES) | level of solubility (Chloroform) | level of solubility (DMF) | level of solubility (Ethanol) | level of solubility (Ethyl acetate) | level of solubility (THF) | level of solubility (Toluene)
1 | CCCCCCCCS(=O)(=O)c1c(-c2ccc(N(c3ccccc3)c3ccccc3)cc2)sc(-c2ccc(N(c3ccccc3)c3ccccc3)cc2)c1S(=O)(=O)CCCCCCCC [Example 21, 4,4′-{3,4-bis(octane-1-sulfonyl)-thiophene-2,5-diyl}bis(N,N-diphenylaniline)] | ⊚ (Dissolved with 50 μL (concentration: 10%)) | Δ (Dissolved with 200 μL (concentration: 2.5%)) | X (Not dissolved even by the addition of 500 μL (concentration: 1% or lower)) | ◯ (Dissolved with 100 μL (concentration: 5%)) | ◯ (Dissolved with 100 μL (concentration: 5%)) | ◯ (Dissolved with 100 μL (concentration: 5%))
2 | CCCCCCCCS(=O)(=O)c1cc(-c2ccc(N(c3ccccc3)c3ccccc3)cc2)sc1-c1ccc(N(c2ccccc2)c2ccccc2)cc1 [Example 22, 4,4′-{3-(octane-1-sulfonyl)-thiophene-2,5-diyl}bis(N,N-diphenylaniline)] | ⊚ (Dissolved with 50 μL (concentration: 10%)) | ⊚ (Dissolved with 50 μL (concentration: 10%)) | X (Not dissolved even by the addition of 500 μL (concentration: 1% or lower)) | ⊚ (Dissolved with 50 μL (concentration: 10%)) | ⊚ (Dissolved with 50 μL (concentration: 10%)) | ⊚ (Dissolved with 50 μL (concentration: 10%))
